Data published in patent US20080317858A1, “FORMULATIONS OF N-(2-ACETYL-4,6-DIMETHYLPHENYL)-3--2-THIOPHENECARBOXAMIDE” (priority 2007, published 2008).

melting point: 158 to 160 °C
Compound: CC(=O)c1cc(C)cc(C)c1NC(=O)c1sccc1S(=O)(=O)Nc1onc(C)c1C [N-(2-acetyl-4,6-dimethylphenyl)-3-{[(3,4 dimethyl-5-isoxazolyl)amino]sulfonyl}-2-thiophenecarboxamide]
